Counter-ions that a name gives are not always drawn. Blank lines part the entries; values can stand above or below the compound they belong to.
Assays:
[1] = system: A375 (melanoma); experiment: SRB cytotoxicity assay, A375; assay type: cell-based, human; settings: Homo sapiens, A-375, 72 h, 72 h of treatment, mean ± standard mean error
Source text: (§1) The cell lines were obtained from Department of Oncology (Martin-Luther-University Halle Wittenberg; they were bought from ATCC; A 375 (CRL-1619), HT29 (HTB-38), MCF7 (HTM-22), A2780 (HTP-77), FaDu (HTP-43), NIH 3T3 (CRL-1658), HEK-293 (CRL-1573)). Cultures were maintained as monolayers in RPMI 1640 medium with L-glutamine (Capricorn Scientific GmbH, Ebsdorfergrund, Germany) supplemented with 10% heat inactivated fetal bovine serum (Sigma-Aldrich Chemie GmbH, Steinheim, Germany) and penicillin/streptomycin (1%, Capricorn Scientific GmbH, Ebsdorfergrund, Germany) at 37 °C in a humidified atmosphere with 5% CO2. The cytotoxicity of the compounds was evaluated using the sulforhodamine-B (Kiton-Red S, ABCR) micro culture colorimetric assay using confluent cells in 96-well plates with the seeding of the cells on day 0 applying appropriate cell densities to prevent confluence of the cells during the period of the experiment. On day 1, the cells were treated with six different concentrations (1, 3, 7, 12, 20, and 30 μM); thereby, the final concentration of DMSO was always <0.5%, generally regarded as non-toxic to the cells. On day 4, the supernatant medium was discarded; the cells were fixed with 10% trichloroacetic acid. After another day at 4 °C, the cells were washed in a strip washer and dyed with the SRB solution (100 μL, 0.4% in 1% acetic acid) for about 20 min to be followed by washing of the plates (four times, 1% acetic acid) and air-drying overnight. Furthermore, tris base solution (200 μL, 10 mM) was added to each well and absorbance was measured at λ = 570 nm employing a reader (96 wells, Tecan Spectra, Crailsheim, Germany). The EC50 values were averaged from three independent experiments performed each in triplicate calculated from semi logarithmic dose response curves applying a non-linear four-parameter Hills-slope equation (GraphPad Prism5; variables top and bottom were set to 100 and 0, respectively).

[2] = system: HT29 (colon adenocarcinoma); experiment: SRB cytotoxicity assay, HT29; assay type: cell-based, human; settings: Homo sapiens, HT-29, 72 h, 72 h of treatment, mean ± standard mean error
Source text: as §1

[3] = system: MCF-7 (breast adenocarcinoma); experiment: SRB cytotoxicity assay, MCF-7; assay type: cell-based; settings: Homo sapiens, MCF7, 72 h of treatment, mean ± standard mean error
Source text: as §1

[4] = system: A2780 (ovarian carcinoma); experiment: SRB cytotoxicity assay, A2780; assay type: cell-based; settings: Homo sapiens, 72 h of treatment, mean ± standard mean error
Source text: as §1

[5] = system: NIH 3T3 (fibroblasts), non-malignant; experiment: SRB cytotoxicity assay, NIH 3T3; assay type: cell-based; settings: Mus musculus, NIH3T3, 72 h, 72 h of treatment, mean ± standard mean error
Source text: as §1

Structure (SMILES): C=C(C)[C@@H]1CC[C@]2(C(=O)N3CCCN(C(=O)c4ccccc4-c4c5ccc(=[N+](CC)CC)cc-5oc5cc(N(CC)CC)ccc45)CC3)CC[C@]3(C)C(CCC4[C@@]5(C)CC[C@H](OC(C)=O)C(C)(C)C5CC[C@]43C)C12 (stereo partly drawn) (as salt: chloride) (hydrate or solvate) [compound 17, 9-[2-[[4-(3β-Acetyloxy-28-oxo-30-norlupan-28-yl)-1-homopiperazinyl]carbonyl]phenyl]-3,6-bis(diethylamino)-xanthylium chloride]
melting point: 261 to 266 °C

melting point: 235 to 241 °C
Structure (SMILES): CCN(CC)c1ccc2c(-c3ccccc3C(=O)N3CCCN(C(=O)[C@]45CCC(C)(C)CC4C4=CCC6[C@@]7(C)CC[C@H](OC(C)=O)C(C)(C)C7CC[C@@]6(C)[C@]4(C)CC5)CC3)c3ccc(=[N+](CC)CC)cc-3oc2c1 (stereo partly drawn) (as salt: chloride) (hydrate or solvate) [compound 18, 9-[2-[[4-(3β-Acetyloxy-28-oxo-olean-12-en-28-yl]-1-homopiperazinyl]carbonyl]phenyl]-3,6-bis(diethylamino)-xanthylium chloride]

melting point: 238 to 246 °C
Structure (SMILES): CCN(CC)c1ccc2c(-c3ccccc3C(=O)N3CCCN(C(=O)[C@]45CC[C@@H](C)[C@H](C)C4C4=CCC6[C@@]7(C)CC[C@H](OC(C)=O)C(C)(C)C7CC[C@@]6(C)[C@]4(C)CC5)CC3)c3ccc(=[N+](CC)CC)cc-3oc2c1 (stereo partly drawn) (as salt: chloride) (hydrate or solvate) [compound 19, 9-[2-[[4-(3β-Acetyloxy-28-oxo-urs-12-en-28-yl]-1-homopiperazinyl]carbonyl]phenyl]-3,6-bis(diethylamino)-xanthylium chloride]

Structure (SMILES): C=C(C)[C@@H]1CC[C@]2(C(=O)N3CCN(C(=O)c4ccccc4-c4c5ccc(=[N+](CC)CC)cc-5oc5cc(N(CC)CC)ccc45)CC3)CC[C@]3(C)C(CCC4[C@@]5(C)CC[C@H](OC(C)=O)C(C)(C)C5CC[C@]43C)C12 (stereo partly drawn) (as salt: chloride) [compound 13, 9-[2-[[4-(3β-Acetyloxy-28-oxo-lup-20(29)en-28-yl)-1-piperazinyl]carbonyl]phenyl]-3,6-bis(diethylamino)-xanthylium chloride]
melting point: 247 to 252 °C

melting point: 246 to 252 °C
Structure (SMILES): CCN(CC)c1ccc2c(-c3ccccc3C(=O)N3CCN(C(=O)[C@]45CCC(C)(C)CC4C4=CCC6[C@@]7(C)CC[C@H](OC(C)=O)C(C)(C)C7CC[C@@]6(C)[C@]4(C)CC5)CC3)c3ccc(=[N+](CC)CC)cc-3oc2c1 (stereo partly drawn) (as salt: chloride) [compound 14, 9-[2-[[4-(3β-Acetyloxy-28-oxo-olean-12-en-28-yl)-1-piperazinyl]carbonyl]phenyl]-3,6-bis(diethylamino)-xanthylium chloride]

Structure (SMILES): C=C(C)[C@@H]1CC[C@]2(C(=O)N3CCNCC3)CC[C@]3(C)C(CCC4[C@@]5(C)CC[C@H](OC(C)=O)C(C)(C)C5CC[C@]43C)C12 (stereo partly drawn) [compound 5, 3β-Acetyloxy-28-(1-piperazinyl)-lup-20(29)en-28-one]
EC50 [1]: 1500 ± 300 nM | EC50 [2]: 1000 ± 100 nM | EC50 [3]: 1400 ± 100 nM | EC50 [4]: 1900 ± 100 nM | EC50 [5]: 900 ± 100 nM

Structure (SMILES): C=C(C)[C@@H]1CC[C@]2(C(=O)N3CCCNCC3)CC[C@]3(C)C(CCC4[C@@]5(C)CC[C@H](OC(C)=O)C(C)(C)C5CC[C@]43C)C12 (stereo partly drawn) [compound 9, 3β-Acetyloxy-28-(1-homopiperazinyl)-lup-20(29)en-28-one]
EC50 [1]: 18700 ± 1600 nM | EC50 [2]: 5100 ± 1100 nM | EC50 [3]: 10700 ± 1000 nM | EC50 [4]: 12000 ± 600 nM | EC50 [5]: 18700 ± 1600 nM

Structure (SMILES): C=C(C)[C@@H]1CC[C@]2(C(=O)N3CCN(C(=O)c4ccccc4-c4c5ccc(=[N+](CC)CC)cc-5oc5cc(N(CC)CC)ccc45)CC3)CC[C@]3(C)C(CCC4[C@@]5(C)CC[C@H](OC(C)=O)C(C)(C)C5CC[C@]43C)C12 (stereo partly drawn) [compound 13, 9-[2-[[4-(3β-Acetyloxy-28-oxo-lup-20(29)en-28-yl)-1-piperazinyl]carbonyl]phenyl]-3,6-bis(diethylamino)-xanthylium chloride]
EC50 [1]: 90 ± 10 nM | EC50 [2]: 151 ± 22 nM | EC50 [3]: 81 ± 5 nM | EC50 [4]: 50 ± 4 nM | EC50 [5]: 208 ± 34 nM

Structure (SMILES): CCN(CC)c1ccc2c(-c3ccccc3C(=O)N3CCN(C(=O)[C@]45CCC(C)(C)CC4C4=CCC6[C@@]7(C)CC[C@H](OC(C)=O)C(C)(C)C7CC[C@@]6(C)[C@]4(C)CC5)CC3)c3ccc(=[N+](CC)CC)cc-3oc2c1 (stereo partly drawn) [compound 14, 9-[2-[[4-(3β-Acetyloxy-28-oxo-olean-12-en-28-yl)-1-piperazinyl]carbonyl]phenyl]-3,6-bis(diethylamino)-xanthylium chloride]
EC50 [1]: 90 ± 10 nM | EC50 [2]: 91 ± 10 nM | EC50 [3]: 62 ± 4 nM | EC50 [4]: 32 ± 1 nM | EC50 [5]: 137 ± 6 nM

Structure (SMILES): CCN(CC)c1ccc2c(-c3ccccc3C(=O)N3CCN(C(=O)[C@]45CC[C@@H](C)[C@H](C)C4C4=CCC6[C@@]7(C)CC[C@H](OC(C)=O)C(C)(C)C7CC[C@@]6(C)[C@]4(C)CC5)CC3)c3ccc(=[N+](CC)CC)cc-3oc2c1 (stereo partly drawn) [compound 15, 9-[2-[[4-(3β-Acetyloxy-28-oxo-ursan-12-en-28-yl)-1-piperazinyl]carbonyl]phenyl]-3,6-bis(diethylamino)-xanthylium chloride]
EC50 [1]: 40 ± 20 nM | EC50 [2]: 83 ± 7 nM | EC50 [3]: 75 ± 5 nM | EC50 [4]: 38 ± 2 nM | EC50 [5]: 137 ± 9 nM

Structure (SMILES): CCN(CC)c1ccc2c(-c3ccccc3C(=O)N3CCN(C(=O)[C@]45CC[C@@H](C(C)=O)C4C4CCC6[C@@]7(C)CC[C@H](OC(C)=O)C(C)(C)C7CC[C@@]6(C)[C@]4(C)CC5)CC3)c3ccc(=[N+](CC)CC)cc-3oc2c1 (stereo partly drawn) [compound 16, 9-[2-[[4-(3β-Acetyloxy-20,28-dioxo-30-norlupan-28-yl)-1-piperazinyl]carbonyl]phenyl]-3,6-bis(diethylamino)-xanthylium chloride]
EC50 [1]: 80 ± 30 nM | EC50 [2]: 99 ± 16 nM | EC50 [3]: 70 ± 2 nM | EC50 [4]: 36 ± 1 nM | EC50 [5]: 171 ± 6 nM

Structure (SMILES): C=C(C)[C@@H]1CC[C@]2(C(=O)N3CCCN(C(=O)c4ccccc4-c4c5ccc(=[N+](CC)CC)cc-5oc5cc(N(CC)CC)ccc45)CC3)CC[C@]3(C)C(CCC4[C@@]5(C)CC[C@H](OC(C)=O)C(C)(C)C5CC[C@]43C)C12 (stereo partly drawn) [compound 17, 9-[2-[[4-(3β-Acetyloxy-28-oxo-30-norlupan-28-yl)-1-homopiperazinyl]carbonyl]phenyl]-3,6-bis(diethylamino)-xanthylium chloride]
EC50 [1]: 760 ± 90 nM | EC50 [2]: 280 ± 10 nM | EC50 [3]: 220 ± 20 nM | EC50 [4]: 220 ± 10 nM | EC50 [5]: 330 ± 70 nM

Structure (SMILES): CCN(CC)c1ccc2c(-c3ccccc3C(=O)N3CCCN(C(=O)[C@]45CCC(C)(C)CC4C4=CCC6[C@@]7(C)CC[C@H](OC(C)=O)C(C)(C)C7CC[C@@]6(C)[C@]4(C)CC5)CC3)c3ccc(=[N+](CC)CC)cc-3oc2c1 (stereo partly drawn) [compound 18, 9-[2-[[4-(3β-Acetyloxy-28-oxo-olean-12-en-28-yl]-1-homopiperazinyl]carbonyl]phenyl]-3,6-bis(diethylamino)-xanthylium chloride]
EC50 [1]: 40 ± 10 nM | EC50 [2]: 40 ± 10 nM | EC50 [3]: 30 ± 4 nM | EC50 [4]: 20 ± 3 nM | EC50 [5]: 140 ± 20 nM

Structure (SMILES): CCN(CC)c1ccc2c(-c3ccccc3C(=O)N3CCCN(C(=O)[C@]45CC[C@@H](C)[C@H](C)C4C4=CCC6[C@@]7(C)CC[C@H](OC(C)=O)C(C)(C)C7CC[C@@]6(C)[C@]4(C)CC5)CC3)c3ccc(=[N+](CC)CC)cc-3oc2c1 (stereo partly drawn) [compound 19, 9-[2-[[4-(3β-Acetyloxy-28-oxo-urs-12-en-28-yl]-1-homopiperazinyl]carbonyl]phenyl]-3,6-bis(diethylamino)-xanthylium chloride]
EC50 [1]: 510 ± 50 nM | EC50 [2]: 500 ± 70 nM | EC50 [3]: 390 ± 40 nM | EC50 [4]: 450 ± 30 nM | EC50 [5]: 400 ± 30 nM

Structure (SMILES): CCN(CC)c1ccc2c(-c3ccccc3C(=O)N3CCCN(C(=O)[C@]45CC[C@@H](C(C)=O)C4C4CCC6[C@@]7(C)CC[C@H](OC(C)=O)C(C)(C)C7CC[C@@]6(C)[C@]4(C)CC5)CC3)c3ccc(=[N+](CC)CC)cc-3oc2c1 (stereo partly drawn) [compound 20, 9-[2-[[4-(3β-Acetyloxy-20,28-dioxo-30-norlupan-28-yl)-1-homopiperazinyl]carbonyl]phenyl]-3,6-bis(diethylamino)-xanthylium chloride]
EC50 [1]: 240 ± 17 nM | EC50 [2]: 300 ± 27 nM | EC50 [3]: 150 ± 50 nM | EC50 [4]: 120 ± 18 nM | EC50 [5]: 340 ± 56 nM

Source: paper PMC9000871, “Rhodamine 101 Conjugates of Triterpenoic Amides Are of Comparable Cytotoxicity as Their Rhodamine B Analogs” (Molecules, 2022)
